# Earlier results, collected in US6399047B1, “Benzoxazole derivatives for use in cosmetic compositions and for stabilizing synthetic polymers” (3V Sigma S.p.A., priority 2000, dated 2002).
# What was measured:
# [1] = background statement
# [2] = background statement; remark: listed apart in the source
structure (smiles),measurement,setting,value
COc1ccc(C(=O)c2ccccc2)c(O)c1 [2-Hydroxy-4-methoxybenzophenone],maximum absorption in the UV-A zone,[1],about 325 nm
same,solubility in solvents usually used in cosmetics,[2],very low
